In ChEMBL document CHEMBL1151237, “Chamuvarinin, an acetogenin bearing a tetrahydropyran ring from the roots of Uvaria chamae” (J Nat Prod, 2004):

Experiment: Cytotoxicity against human KB3-1 cells by colorimetric assay
Assay type: functional, cell-based
Settings: KB 3-1

In the case of CCCCCCC1CCCC(C2CCC([C@H]3CC[C@H]([C@H](O)CCCCCCCCCCCCC4=C[C@H](C)OC4=O)O3)O2)O1 (some centres not stated) [CHAMUVARININ], the IC50 is reported as 0.8 nM.
CCCCCC[C@H](O)CCC[C@H](O)[C@H]1CC[C@H]([C@H]2CC[C@H]([C@H](O)CCCCCCCCCCCCC3=C[C@H](C)OC3=O)O2)O1 [SQUAMOCIN] gave an IC50 of 0.003 nM.
